Measured values taken from patent US20160287696A1, “PAN POLLEN IMMUNOGENS AND METHODS AND USES FOR IMMUNE RESPONSE MODULATION” (LA JOLLA INSTITUTE FOR ALLERGY AND IMMUNOLOGY, priority 2013, published 2016).

Tested on: cultured PBMCs of the allergic donors
Experiment: ELISPOT of IL-5 or IFNg production by cultured PBMCs of TG allergic donors in response to peptide
Assay type: cell-based, human
Settings: for # Th+: Table 7, peptides per NTGA recognized by T cells of grass allergic donors (n=20); for No of PG+ & th+ peptides per NTGA / No of PP & Th+ peptides per NTGA: Table 6; for No of PG+ & th+ peptides per NTGA: PG+ peptides recognized by T cells of grass allergic donors (n=20); for No of PP & Th+ peptides per NTGA: PP peptides recognized by T cells of grass allergic donors (n=20); for NTGA's containing at least one T cell epitope, Th+ (Col 2): NTGA number given = criterion met, TG allergic donors n=20
Excerpt: Table 1 indicates for each of the 397 PG+ peptides in which non-grass pollen species a matching peptide with either less than 3, less than 2 or zero mismatches are found. The number of TG grass allergic donors (n=20) with an in vitro T cell response to the TG peptide sequence is also shown.
A set of 93 proteins from Timothy grass (TG) pollen and the assembly of 822 peptides (15 mers) predicted to promiscuously bind HLA class II molecules shown in Table 9 and the immune reactivity in allergic donors have been reported in PCT application WO 2013/119863. […] Immune reactivity was determined by the production of IL-5 or IFNg from cultured PBMCs of the allergic donors in response to stimulation with a peptide and IL-5 and IFNg were measured by ELISPOT as described in Oseroff C et al, 2010.
In short, T cell immune reactivity was determined using PBMCs isolated from study participants and stored in liquid nitrogen until further use. For experimental testing, PBMCs were thawed and expanded in vitro with TG pollen extract (50 μg/mL) or the peptide pool ([…]). The TG extract and peptide pools had each been previously titrated to determine optimal stimulation concentrations.
Cytokine production by cultured PBMCs in response to antigen stimulation was measured by ELISPOT. Cells (1×10^5 cells/well) were plated and incubated with peptide (10 μg/mL), the peptide pool (5 μg/mL), or the TG extract (50 μg/mL). Phytohaemagglutinin (10 μg/mL) and medium alone were used as positive and negative controls, respectively. Samples were considered to produce a cytokine if 100 spot-forming cells (SFCs)/10^6 PBMCs were detected, with P .05 and a stimulation index of 2 or more. Criteria for individual peptides were the same except that a minimum of 20 SFCs were required for a sample to be counted as positive.
Table 3 lists the 397 PG+ peptides and indicates for each non-grass pollen species whether a matching peptide with either less than 3, less than 2 or zero mismatches could be detected. The immune reactivity of the TG peptide was assessed as the number of TG grass allergic donors (n=20) having in vitro T cell response against the TG peptide.

Substance | # Th+ | No of PG+ & th+ peptides per NTGA | No of PP & Th+ peptides per NTGA | NTGA's containing at least one T cell epitope, Th+ (Col 2)
93 (LGEAPYKFKSALEAV) [compound 93] | 0 |  |  | 
55 (LNKKYGSNVPLLLMN) [compound 55] | 0 | 0 | 0 | 
14 (LGAAAVYAGLKFRAP) [compound 14] | 0 |  |  | 
25 (VLLGLLSVWNVSFLG) [compound 25] | 0 |  |  | 
61 (ISYEGRVQLLEIAQV) [compound 61] | 0 |  |  | 
88 (IKLKNMLFHTARINC) [compound 88] | 0 |  |  | 
41 (LVSVEDIVLQHWATY) [compound 41] | 0 |  |  | 
28 (NGQHSFYQLIHQGRV) [compound 28] | 0 | 0 | 0 | 
70 (RFLPVKATSDLQLVQ) [compound 70] | 0 |  |  | 
44 (GATIRIYIEQYEKDS) [compound 44] | 0 | 0 | 0 | 
46 (LDIAVRLLEPIKEQV) [compound 46] | 1 |  |  | 
38 (AVQSIPYFASGLKGV) [compound 38] | 0 | 0 | 0 | 
45 (DALSPLVDVALKLSK) [compound 45] | 0 |  |  | 
50 (NPLIFDNSYFTELLT) [compound 50] | 0 | 0 | 0 | 
42 (HQGIRYLFGDGSRLV) [compound 42] | 0 | 1 | 1 | 42
16 (QTELDNFMVHQLDGT) [compound 16] | 0 | 2 | 2 | 16
67 (VKVLQLETAAGAAIR) [compound 67] | 0 |  |  | 
